Where no end group is shown, it is not given here.
Experiments:
hairless rats = test: Psoriasis model, 2% imiquimod (IMQ) applied to auricle of hairless rats; type: in vivo, rat; conditions: 1 mg/body 3 times
Experimental: AJP001 conjugated peptide (SEQ ID NO: 2) was dissolved in physiological saline and intradermally administered to hairless rats (female, 6-week-old, N=6) at 1 mg/body 3 times at two-week intervals. From 6 weeks after the initial administration, 2% imiquimod (IMQ) was intermittently applied to the auricle 4 times in total at 1-day intervals to create a psoriasis model. A 2% IMQ application group was provided as a control group. The drug efficacy was evaluated by measuring the thickness of the auricle with a thickness gauge (Mitutoyo Corporation) from the first day of IMQ application to the eighth day. Furthermore, on the 8th day, histopathological evaluation of the auricular tissue was performed. Specifically, the collected auricle was fixed with 10% neutral formalin, and then a specimen was prepared according to a conventional method and stained with HE. HE-stained specimens were observed under a microscope, and inflammatory cell infiltration, edema, and thickness were scored in 4 stages (0: normal, 1: mild, 2: intermediate, 3: severe) and the total score was calculated. Furthermore, the antibody titer (GMT) of the serum at the time point of 6 weeks was measured by the ELISA method (same method as in Example 1. Anti-Rat IgG (GE Healthcare) was used as the secondary antibody). […]

BALB/c mouse = test: TNBS-induced mouse colitis model; type: in vivo
Experimental: AJP001 conjugated peptide (SEQ ID NO: 2) was dissolved in physiological saline, mixed with an equal amount of 1 mg/mL Type-B/K CpG-ODN K3 (GeneDesign, Inc., hereinafter sometimes to be referred to as “CpG”), and subcutaneously administered to BALB/c mouse (female, 6-week-old, N=10) at 1 mg/body 3 times at two-week intervals. At the time point of 6 weeks after the initial administration, TNBS dissolved in 30% ethanol was administered by intestinal infusion at 2 mg/body. With the first administration of TNBS as Day 0, TNBS was administered by intestinal infusion at 3 mg/body on Day 7 to induce colitis. A Normal group and a 30% EtOH group, each without administration of TNBS, a Saline/TNBS group with administration of TNBS but without administration of the peptide, and a CpG/INBS group with administration of only an adjuvant were provided. Body weight was measured on Days 1, 2, 3, 4, 7, 8, 9, and 10, including the day of TNBS administration. After euthanasia by cardiac blood collection under deep anesthesia on Day 10, the obtained serum was measured for the antibody titer (GMT) and binding to mIL-23 by the ELISA method (same method as in Example 1). In addition, large intestinal tissue was collected, the length (cm) of the large intestine was measured, a 2 cm region from the anus was subjected to the measurement of cytokine mRNA expression, and a 2 to 4 cm region was subjected to histopathological examination. As to the expression of cytokine mRNA, the region was bead disrupted under ice-cooling, total RNA was extracted using RNeasy Fibrous Tissue Kit (Qiagen), and then cDNA of the extracted RNA was prepared using High-Capacity cDNA Reverse Transcription Kit ([…]). Using TaqMan Gene Expression Assays (GAPDH: Mm99999915_g1; IL-17A: Mm00439618_m1; IL-17F:Mm00521423_m1; IL-22:Mm01226722_m1; IL-23:Mm00518984_m1; IL-1β:Mm00434228_m1), Ct value was measured using Applied Biosystems 7900HT Fast Real Time PCR System. The mRNA expression level was calculated by the ΔΔCt method and evaluated as a relative value to the normal group. For histopathological examination, the collected large intestine was fixed with 10% neutral formalin, and then a specimen was prepared according to a conventional method and stained with HE. The HE-stained specimen was observed under a microscope, scored for inflammatory cell infiltration (Grade: 0-3), depth of colorectal tissue damage (Grade: 0-3), and range of colorectal mucosal damage (Grade: 0-4), and the total score was calculated.

rhIL-23 = test: Binding of monkey antiserum to rhIL-23, ELISA; design: species or system human; conditions: monkey antiserum 6 weeks after the initial administration
Experimental: AJP001 conjugated peptide (SEQ ID NO: 6) was dissolved in physiological saline and subcutaneously administered to Macaca fascicularis (female, […], N=4) at 5 mg/body 3 times at two-week intervals. Blood was collected every two weeks from the first day of administration until week 16, and the antibody titer (GMT) and binding to IL-23 of the serum at each time point were measured by the ELISA method (same method as in Example 1; the secondary antibody used was Anti-Monkey IgG (Abcam)). In FIG. 7, “*” means P<0.05.

Row | Substance | increase in auricular thickness (hairless rats; 2% IMQ 4 times from week 6, day 1 to 8) | inflammatory changes of tissue (auricle, HE score) (hairless rats; 2% IMQ, day 8) | shortened large intestine length (BALB/c mouse; 1 mg/body with CpG 3 times, Day 10) | inflammatory changes in large intestine tissues (BALB/c mouse; 1 mg/body with CpG 3 times, Day 10, HE) | mRNA expression of IL-17A, IL-22, and IL-1β in tissues (BALB/c mouse; 1 mg/body with CpG 3 times, Day 10, large intestinal tissue) | body weight loss (BALB/c mouse; BALB/c mice, 1 mg/body subcutaneous with CpG-ODN K3, 3 times, TNBS Day 0 and Day 7, vs Saline/TNBS or CpG/TNBS) | binding ability to rhIL-23 (rhIL-23)
1 | SEQ ID NO 2: AJP001-Ahx-B cell epitope peptide conjugate; epitope SSSQQWQR (mouse 152-159) (not fully specified (N-terminus); listed as Mus musculus) | suppressive action | suppressive action | suppressive action | suppressive action | suppressive action | suppressive action | –
2 | SEQ ID NO 6: AJP001-Ahx-B cell epitope peptide conjugate; epitope SPSQPWQR (human 151-158) (not fully specified (N-terminus); listed as Homo sapiens) | – | – | – | – | – | – | showed binding ability

Reference: US20250057928A1, “VACCINE COMPOSITION FOR INDUCING ANTI-IL-23 ANTIBODY” (OSAKA UNIVERSITY, priority 2021, published 2025)
